Data taken from patent publication US20130053358A1, “TRANSDERMALLY ABSORBABLE DONEPEZIL-CONTAINING PREPARATION” (HISAMITSU PHARMACEUTICAL CO., INC., priority 2010, published 2013).
Where a name gives a salt, the structure may show the parent alone.

Test system: human normal epidermal cells
Assay: Production of skin irritation mediators in human three-dimensional epidermal culture model (LabCyte EPI-MODEL), ELISA
Format: cell-based
Source text: There was used a human three-dimensional epidermal culture model in which human normal epidermal cells were multilayer-cultured (LabCyte EPI-MODEL, Japan Tissue Engineering Co., Ltd.). LabCyte is a cultured skin cultured in a transwell. For the experiment, LabCyte was used with the transwell.
A cholesterol (Wako Pure Chemical Industries, Ltd.) was used as a test article. Donepezil hydrochloride was used as the drug. Olive oil (Wako Pure Chemical Industries, Ltd.) was used as a vehicle.
Tests were conducted by the following group composition. • Drug Alone Group: A group with addition of 4×10^−4 M of donepezil hydrochloride alone dispersed in a vehicle, as a test solution. • Cholesterol Addition Group: A group with addition of 4×10^−4 M of donepezil hydrochloride and 1% by mass of cholesterol which were dispersed in a vehicle, as a test solution.
The test solutions of each group were added to the cells, the culture after being incubated for 48 hours were collected, and the production amounts of skin irritation mediators were measured. PGE2, IL-1α, IL-6 and IL-8 were measured as the skin irritation mediators. The skin irritation mediators were measured by using a commercially available ELISA kit (R&D Systems, Inc.). The relative production amount of the skin irritation mediator in the Cholesterol Addition Group was calculated as below, when the production amount of the skin irritation mediators in Drug Alone Group was set to 100.
Relative production amount=(production amount of the mediator in Cholesterol Addition Group)/(production amount of the mediator in Drug Alone Group)×100

[1] = 4×10^−4 M donepezil hydrochloride + 1% by mass cholesterol in olive oil, 48 hours incubation

| SMILES | effect on production amounts of skin irritation mediators by donepezil hydrochloride (1% by mass cholesterol added to 4×10^−4 M donepezil hydrochloride, 48 hours) | relative production amount of skin irritation mediator IL-1α (drug alone group set to 100) [1] | relative production amount of skin irritation mediator IL-6 (drug alone group set to 100) [1] | relative production amount of skin irritation mediator IL-8 (drug alone group set to 100) [1] | relative production amount of skin irritation mediator PGE2 (drug alone group set to 100) [1] |
| --- | --- | --- | --- | --- | --- |
| CC(C)CCC[C@@H](C)[C@H]1CC[C@H]2[C@@H]3CC=C4C[C@@H](O)CC[C@]4(C)[C@H]3CC[C@]12C [cholesterol, (3β)-cholest-5-en-3-olcholest-5-en-3β-ol] | effects of decreasing the production amounts of skin irritation mediators | – | – | – | – |
| COc1cc2c(cc1OC)C(=O)C(CC1CCN(Cc3ccccc3)CC1)C2 (centres unmarked) [Donepezil hydrochloride, 2-[(1-benzyl-4-piperidinyl)methyl]-5,6-dimethoxyindane-1-on] | – | 0 | 85 | 59 | 33 |
